Measurements taken from article PMC3182833 (Molecular microbiology, 2011).

Target: T1, SoArsAB (Sporomusa ovata, UniProt F6MZ55+F6MZ56)
T1 sequence (F6MZ55 1-350): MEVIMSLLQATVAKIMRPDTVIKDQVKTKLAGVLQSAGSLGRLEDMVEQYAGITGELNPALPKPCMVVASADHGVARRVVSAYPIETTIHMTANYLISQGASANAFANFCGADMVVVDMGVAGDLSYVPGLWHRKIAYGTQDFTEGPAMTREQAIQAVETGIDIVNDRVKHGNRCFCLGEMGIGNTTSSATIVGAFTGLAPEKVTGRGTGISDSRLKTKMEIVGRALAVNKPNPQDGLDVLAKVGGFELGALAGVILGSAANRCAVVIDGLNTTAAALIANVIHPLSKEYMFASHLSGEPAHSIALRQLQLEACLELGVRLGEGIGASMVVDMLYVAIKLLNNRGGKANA
T1 sequence (F6MZ56 1-350): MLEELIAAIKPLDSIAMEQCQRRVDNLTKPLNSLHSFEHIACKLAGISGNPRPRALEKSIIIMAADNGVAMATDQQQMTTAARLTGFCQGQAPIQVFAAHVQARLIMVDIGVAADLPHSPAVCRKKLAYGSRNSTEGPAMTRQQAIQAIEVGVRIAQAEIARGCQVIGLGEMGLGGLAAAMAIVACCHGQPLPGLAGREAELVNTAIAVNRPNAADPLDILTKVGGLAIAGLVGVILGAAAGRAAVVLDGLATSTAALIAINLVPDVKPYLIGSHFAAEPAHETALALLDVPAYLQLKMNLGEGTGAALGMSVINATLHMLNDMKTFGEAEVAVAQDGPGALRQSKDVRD
Test: product
Format: biochemical
Settings: NaMN co-substrate; 6 h incubation

Cc1ccc(O)cc1 [P, p-cresol]
product (alpha-p-cresolyl-ribotide) by RP-HPLC and ESI-MS: The product of SoArsAB when phenol, p-cresol, or DMB was used as substrate was purified
